Where two headings read alike, the source gives them in different places. One block for each molecule: values may come before it.
Assays:
U2OS = assay: cells; settings: Homo sapiens, U2OS
OSA = assay: cells
SMS-CTR = assay: cells
NIH3T3 = assay: cells; settings: Mus musculus
C2C12 = assay: cells; settings: Mus musculus
MCF 10A = assay: cells; settings: Homo sapiens, MCF-10A, read-out: EC50 for cell killing (μM) / SecinH3
HeLa = assay: cells; settings: Homo sapiens, HeLa, read-out: EC50 for cell killing (μM) / SecinH3
RD = assay: cells; settings: Homo sapiens, RD
ASAP1PZA [1] = biological target: T1, ASAP1PZA (Mus musculus, UniProt Q9QWY8); assay: thermal shift, soluble fraction by SDS-PAGE; assay type: binding; settings: 10 μM protein, no membrane
T1 sequence (Q9QWY8 325-724 limits assumed): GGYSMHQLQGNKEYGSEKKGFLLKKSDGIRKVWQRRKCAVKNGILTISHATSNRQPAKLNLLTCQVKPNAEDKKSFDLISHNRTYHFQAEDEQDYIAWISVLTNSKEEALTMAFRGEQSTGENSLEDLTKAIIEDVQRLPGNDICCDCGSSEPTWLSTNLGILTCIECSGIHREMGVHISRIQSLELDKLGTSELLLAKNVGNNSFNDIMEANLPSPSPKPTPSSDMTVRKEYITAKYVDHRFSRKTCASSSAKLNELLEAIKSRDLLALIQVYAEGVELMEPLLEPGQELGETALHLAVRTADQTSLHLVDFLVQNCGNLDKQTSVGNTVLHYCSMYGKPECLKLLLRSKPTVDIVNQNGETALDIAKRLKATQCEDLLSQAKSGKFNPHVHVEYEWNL

ASAP1 (full-length) = ASAP1 (full-length) (Mus musculus, UniProt Q9QWY8); assay: GAP assay, conversion of Arf1-GTP to Arf1-GDP; assay type: biochemical
Brag2Sec7-PH = Brag2Sec7-PH (Homo sapiens, UniProt Q6DN90); assay: GEF assay, […]GTPgammaS binding to Arf1, filter trapping; assay type: biochemical
ASAP1PZA [2] = biological target: T1, ASAP1PZA; assay: GAP assay, conversion of Arf1-GTP to Arf1-GDP; assay type: biochemical
myrArf1 = settings: NAV-2729 partitioned in LUVs; PBS, room temperature; not myristoylated
[3] = read-out: EC50 for cell killing (μM) / SecinH3
[4] = read-out: EC50 for cell killing (μM) / NAV-2729
[5] = read-out: EC50 for cell killing (μM) / Bragsin2

ASAP1 (full-length), sequence (Q9QWY8 whole entry): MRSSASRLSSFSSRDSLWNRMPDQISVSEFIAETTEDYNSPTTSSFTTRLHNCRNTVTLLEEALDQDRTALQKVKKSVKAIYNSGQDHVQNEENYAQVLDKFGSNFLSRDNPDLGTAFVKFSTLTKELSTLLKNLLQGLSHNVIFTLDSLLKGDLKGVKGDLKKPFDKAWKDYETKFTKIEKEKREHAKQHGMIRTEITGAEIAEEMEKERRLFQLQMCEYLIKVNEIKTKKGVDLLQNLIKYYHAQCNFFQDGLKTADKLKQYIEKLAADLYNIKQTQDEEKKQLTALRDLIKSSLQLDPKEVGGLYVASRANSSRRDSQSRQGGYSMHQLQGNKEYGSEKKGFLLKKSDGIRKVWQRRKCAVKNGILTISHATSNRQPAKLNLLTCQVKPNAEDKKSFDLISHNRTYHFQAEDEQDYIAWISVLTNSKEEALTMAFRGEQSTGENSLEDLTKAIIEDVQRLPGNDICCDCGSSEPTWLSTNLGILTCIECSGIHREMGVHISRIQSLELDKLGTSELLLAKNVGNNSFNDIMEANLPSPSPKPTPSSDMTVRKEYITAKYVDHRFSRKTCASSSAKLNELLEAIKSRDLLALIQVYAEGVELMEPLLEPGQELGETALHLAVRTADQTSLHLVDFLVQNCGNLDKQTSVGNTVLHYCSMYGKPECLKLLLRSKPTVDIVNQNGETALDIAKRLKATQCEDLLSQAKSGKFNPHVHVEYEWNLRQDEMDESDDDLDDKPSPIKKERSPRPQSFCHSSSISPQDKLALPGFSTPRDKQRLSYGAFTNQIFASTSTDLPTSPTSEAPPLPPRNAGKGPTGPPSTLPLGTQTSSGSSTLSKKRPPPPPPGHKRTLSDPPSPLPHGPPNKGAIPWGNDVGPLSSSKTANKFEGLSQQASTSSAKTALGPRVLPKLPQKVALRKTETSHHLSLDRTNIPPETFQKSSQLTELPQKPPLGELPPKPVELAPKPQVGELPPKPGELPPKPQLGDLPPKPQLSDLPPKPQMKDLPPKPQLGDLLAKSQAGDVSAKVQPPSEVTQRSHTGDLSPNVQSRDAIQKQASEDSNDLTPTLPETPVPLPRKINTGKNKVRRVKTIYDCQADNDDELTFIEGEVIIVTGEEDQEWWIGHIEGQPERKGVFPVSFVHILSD
Brag2Sec7-PH, sequence (Q6DN90 512-885): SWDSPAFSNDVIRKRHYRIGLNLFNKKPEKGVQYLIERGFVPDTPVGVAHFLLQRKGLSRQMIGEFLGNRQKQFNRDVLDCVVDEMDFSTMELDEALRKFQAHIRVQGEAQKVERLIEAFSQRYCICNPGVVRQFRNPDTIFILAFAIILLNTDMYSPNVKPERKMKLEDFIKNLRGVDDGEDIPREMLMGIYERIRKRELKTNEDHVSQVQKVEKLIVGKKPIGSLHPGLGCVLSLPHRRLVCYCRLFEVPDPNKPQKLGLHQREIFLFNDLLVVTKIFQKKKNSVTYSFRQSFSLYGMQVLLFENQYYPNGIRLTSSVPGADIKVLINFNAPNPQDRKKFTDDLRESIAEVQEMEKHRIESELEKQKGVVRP

Compound: COc1nc(-c2ccc3c(c2)OCO3)n(-c2ccc(NC(=O)CSc3ccccc3)cc2)n1 [SecinH3]
EC50 (U2OS; [3]): > 50 µM
EC50 (OSA; [3]): > 50 µM
EC50 (SMS-CTR; [3]): > 50 µM
EC50 (NIH3T3; NIH3T3, read-out: EC50 for cell killing (μM) / SecinH3): > 50 µM
EC50 (C2C12; C2C12, read-out: EC50 for cell killing (μM) / SecinH3): > 50 µM
EC50 (MCF 10A): > 50 µM
EC50 (HeLa): > 50 µM
EC50 (RD; [3]): > 50 µM

Compound: C[C@H]1CCC/C=C/[C@@H]2C[C@H](O)C[C@H]2[C@H](O)/C=C/C(=O)O1 [Brefeldin A]
EC50 (RD; read-out: EC50 for cell killing (μM) / Brefeldin A): 0.006 ± 0.002 µM

thermal shift at 200 μM (ASAP1PZA [1]): ~ 6 degree
Compound: CCCCCCCC(=O)OC[C@H](COP(=O)(O)O[C@@H]1[C@H](O)[C@H](O)[C@@H](OP(=O)(O)O)[C@H](OP(=O)(O)O)[C@H]1O)OC(=O)CCCCCCC [diC8-PIP2]

IC50 (ASAP1 (full-length)): 12.2 ± 1.4 µM
IC50 (Brag2Sec7-PH): 7.1 ± 2.5 µM
IC50 (ASAP1PZA [2]): 4.6 ± 0.9 µM
Kd (myrArf1): > 50 µM
Compound: O=c1cc(-c2ccc([N+](=O)[O-])cc2)[nH]c2c(-c3ccc(Cl)cc3)c(Cc3ccccc3)nn12 [NAV-2729]
EC50 (SMS-CTR; [4]): 11 µM
EC50 (NIH3T3; NIH3T3, read-out: EC50 for cell killing (μM) / NAV-2729): 11 µM
EC50 (C2C12; C2C12, read-out: EC50 for cell killing (μM) / NAV-2729): 11 µM
EC50 (RD; [4]): 8 µM

Compound: COc1ccc2oc(C(F)(F)F)cc(=O)c2c1[N+](=O)[O-] [Bragsin2]
EC50 (U2OS; [5]): > 50 µM
EC50 (OSA; [5]): > 50 µM

Reference: article PMC10023970 (The Journal of Biological Chemistry, 2023)
